Measured values from the supplement of paper PMC10307832.

Columns and labels:
Test in all cases: relative viability (nuclei count vs DMSO), 5 days (fraction); higher = more cells survive
[1] = compound: NC(=O)c1ccc(N(C(N)=O)c2c(F)cccc2F)nc1-c1ccc(F)cc1F [VX-702] + Nc1ncn([C@H]2C[C@H](O)[C@@H](CO)O2)c(=O)n1 [Decitabine] (partner 2 µM)
In short: (§1)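 One day after seeding in 1536-well plates, lung cancer cell lines were dosed by pin tool. Dosing was either single-drug or a fixed anchor-drug dose plus five library-drug doses (not always all listed) in √10 steps. After 5 days, nuclei were stained in one fix-and-stain step and counted on 4× images, and relative viability is the nuclei count of treated wells over that of vehicle wells, given as the median of duplicate plates.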

[2] = compound: CC(C)(C)c1nc(-c2cccc(NS(=O)(=O)c3c(F)cccc3F)c2F)c(-c2ccnc(N)n2)s1 [Dabrafenib] + O=C(c1cc(Cc2n[nH]c(=O)c3ccccc23)ccc1F)N1CCN(C(=O)C2CC2)CC1 [Olaparib] (partner 8 µM)
In short: as §1

[3] = compound: CC(C)(C)c1nc(-c2cccc(NS(=O)(=O)c3c(F)cccc3F)c2F)c(-c2ccnc(N)n2)s1 [Dabrafenib] + CS(=O)(=O)CCNCc1ccc(-c2ccc3ncnc(Nc4ccc(OCc5cccc(F)c5)c(Cl)c4)c3c2)o1 [Lapatinib] (partner 2 µM)
In short: as §1

[4] = compound: NC(=O)c1ccc(N(C(N)=O)c2c(F)cccc2F)nc1-c1ccc(F)cc1F [VX-702] + Cc1cc(Nc2cc(N3CCN(C)CC3)nc(Sc3ccc(NC(=O)C4CC4)cc3)n2)n[nH]1 [Tozasertib] (partner 0.1 µM)
In short: as §1

| Cell Line | relative viability ([1]; first compound 0.02 µM) | relative viability ([1]; first compound 0.2 µM) | relative viability ([1]; first compound 0.6325 µM) | relative viability ([1]; first compound 2 µM) | relative viability ([2]; first compound 0.003 µM) | relative viability ([2]; first compound 0.009487 µM) | relative viability ([2]; first compound 0.03 µM) | relative viability ([2]; first compound 0.09487 µM) | relative viability ([2]; first compound 0.3 µM) | relative viability ([3]; first compound 0.003 µM) | relative viability ([3]; first compound 0.009487 µM) | relative viability ([3]; first compound 0.03 µM) | relative viability ([3]; first compound 0.09487 µM) | relative viability ([3]; first compound 0.3 µM) | relative viability ([4]; first compound 0.02 µM) | relative viability ([4]; first compound 0.2 µM) | relative viability ([4]; first compound 0.6325 µM) | relative viability ([4]; first compound 2 µM) |
| --- | --- | --- | --- | --- | --- | --- | --- | --- | --- | --- | --- | --- | --- | --- | --- | --- | --- | --- |
| PC-14 | 0.199 | 0.261 | 0.221 | 0.218 | 0.237 | 0.293 | 0.241 | 0.283 | 0.338 | 0.282 | 0.418 | 0.363 | 0.317 | 0.364 | 0.559 | 0.527 | 0.551 | 0.587 |
| RERF-LC-KJ | 0.762 | 0.759 | 0.66 | 0.685 | 0.907 | 1 | 0.895 | 0.774 | 0.932 | 0.851 | 0.9 | 0.893 | 0.907 | 1.04 | 0.538 | 0.477 | 0.541 | 0.463 |
| SK-LU-1 | 0.625 | 0.61 | 0.653 | 0.702 | – | 0.521 | 0.372 | 0.347 | 0.406 | – | 0.804 | 0.653 | 0.664 | 0.719 | 0.337 | 0.315 | 0.311 | 0.476 |
| SK-MES-1 | 0.387 | 0.388 | 0.308 | 0.297 | 0.582 | 0.671 | 0.627 | 0.567 | 0.393 | 0.418 | 0.546 | 0.525 | 0.506 | 0.598 | 0.92 | 0.944 | 0.914 | 0.995 |
| SW 1573 | 0.518 | 0.434 | 0.412 | 0.437 | 0.501 | 0.468 | 0.475 | 0.415 | 0.453 | 0.883 | 0.864 | 1.17 | 1.1 | 1.11 | 0.145 | 0.168 | 0.173 | 0.243 |
| UMC-11 | 0.515 | 0.616 | 0.643 | 0.791 | 0.443 | 0.879 | 0.354 | 0.317 | 0.427 | 1.01 | 1.08 | 0.812 | 1.08 | 0.959 | 0.202 | 0.207 | 0.186 | 0.198 |
